# Test results as given in patent publication US11427861B2, “Methods for identifying and modulating co-occurant cellular phenotypes” (MASSACHUSETTS INSTITUTE OF TECHNOLOGY, priority 2016, dated 2022).
# Test system: dendritic cells
# Assay: Induction of the functional dendritic cell subset by immunomodulators
# Assay type: cell-based, human
# Details: dendritic cells of normal donors; TLR3 ligand as immunomodulator
substance,measurement,value
poly I:C,population of the functional subset of dendritic cells (CD64 and PD-L1 surface expression),induced a larger population of the functional subset of dendritic cells
